# Laboratory results as given in US4560662A, “Streptomyces antibioticus ATCC 31771 and process for obtaining same” (priority 1981, dated 1985).
# Read-outs that look alike come from different tables or passages of the source.
# Tests used:
# [1] = test system: Neisseria Gonorrhoeae ATCC 19424; test: Bacteriostatic power in solid medium (MIC), aerobic Gram negative; assay type: cell-based; settings: for MIC: Neisseria gonorrhoeae
# [2] = test system: Klebsiella pneumoniae LRP 54; test: as above; assay type: cell-based; settings: for MIC: Klebsiella pneumoniae, LRP54, read-out: minimum inhibiting concentration
# [3] = test system: Bacteroides fragilis ATCC 23745; test: Bacteriostatic power in solid medium (MIC), anaerobic; assay type: cell-based; settings: for MIC: Bacteroides fragilis
# [4] = test system: Haemophilus influenzae ATCC 19418; test: Bacteriostatic power in solid medium (MIC), aerobic Gram negative; assay type: cell-based; settings: for MIC: Haemophilus influenzae, ATCC19418, LRP 213, read-out: minimum inhibiting concentration
# Text: (§1) Turning now to an examination of the novel macrolide antibiotics produced according to the present invention, they are all characterized by a bacteriostatic spectrum like that of erythromycin and by the stability in acidic environment, whereby their direct administration by oral route is possible, without having recourse to esters and/or salts, showing the afore mentioned disadvantages and problems. The above is confirmed by the following Table 1, wherein the MIC values are reported, indicating the bacteriostatic power, and by the Table 2, giving the stability values in acidic environment. Without having to be construed in a limiting sense, it seems plausible that the greater stability of the macrolide. antibiotics of the present invention can be attributed to the presence in the molecule of the antibiotic of the neutral sugar oleandrose (J. Antib. (1976) XXIX (7), 728).
# (§2) Bacteriostatic power in solid medium of Erythromycin A, Erythromycin B,
# (§3) aerobic and anaerobic bacteria, Gram positive and Gram negative minimum
# (§4) inhibiting concentrations expressed in mcg/ml.
# [5] = test system: Pseudomonas aeruginosa LRP 9; test: as above; assay type: cell-based; settings: for MIC: Pseudomonas aeruginosa, LRP9, read-out: minimum inhibiting concentration
# Text: as §1, §2, §3, §4
# Shigella sonnei LRP 5 = test: as above; assay type: cell-based; settings: for MIC: Shigella sonnei, LRP5, read-out: minimum inhibiting concentration
# Text: as §1, §2, §3, §4
# [6] = test system: Streptococcus pneumonieae LRP 52; test: Bacteriostatic power in solid medium (MIC), aerobic Gram positive; assay type: cell-based; settings: for MIC: Streptococcus
# [7] = test system: Staphylococcus aureus LRP 14; test: as above; assay type: cell-based; settings: for MIC: Staphylococcus aureus
# Escherichia coli LRP 50 = test: Bacteriostatic power in solid medium (MIC), aerobic Gram negative; assay type: cell-based; settings: for MIC: Escherichia coli, LRP50, read-out: minimum inhibiting concentration
# [8] = test system: Corynebacterium diphteriae LRP 24; test: Bacteriostatic power in solid medium (MIC), aerobic Gram positive; assay type: cell-based; settings: for MIC: Corynebacterium
# [9] = test system: Streptococcus pyogenes LRP 197; test: as above; assay type: cell-based; settings: for MIC: Streptococcus pyogenes
# [10] = test system: Streptococcus pneumonieae LRP 53; test: as above; assay type: cell-based; settings: for MIC: Streptococcus
# [11] = test system: Micrococcus luteus ATCC 9341; test: as above; assay type: cell-based; settings: for MIC: Micrococcus luteus
# [12] = test system: Staphylococcus aureus ATCC 14154; test: as above; assay type: cell-based; settings: for MIC: Staphylococcus aureus, ATCC14154, LRP 78, Erythromicina resistant, read-out: minimum inhibiting concentration
# Text: as §1, §2, §3, §4
# [13] = test system: Micrococcus luteus ATCC 15957; test: as above; assay type: cell-based; settings: for MIC: Micrococcus luteus, ATCC15957, LRP 193, Erythromicina resistant, read-out: minimum inhibiting concentration
# Text: as §1, §2, §3, §4
# Salmonella typhi LRP 8 = test: Bacteriostatic power in solid medium (MIC), aerobic Gram negative; assay type: cell-based; settings: for MIC: Salmonella enterica, TYPHI, read-out: minimum inhibiting concentration
# [14] = test system: Fusobacterium necrophorum ATCC 27852; test: Bacteriostatic power in solid medium (MIC), anaerobic; assay type: cell-based; settings: for MIC: Fusobacterium necrophorum
# [15] = test system: Proteus vulgaris ATCC 6380; test: Bacteriostatic power in solid medium (MIC), aerobic Gram negative; assay type: cell-based; settings: for MIC: Proteus vulgaris, ATCC6380, read-out: minimum inhibiting concentration
# [16] = test system: Staphylococcus aureus ATCC 6538 P; test: Bacteriostatic power in solid medium (MIC), aerobic Gram positive; assay type: cell-based; settings: for MIC: Staphylococcus aureus
# [17] = test system: Streptococcus faecalis sub. zymogenes ATCC 12958; test: as above; assay type: cell-based; settings: for MIC: Enterococcus faecalis
# [18] = test system: Streptococcus pyogenes ATCC 8668; test: as above; assay type: cell-based; settings: for MIC: Streptococcus pyogenes
# [19] = test system: Streptococcus pneumonieae ATCC 6303; test: as above; assay type: cell-based; settings: for MIC: Streptococcus
# Bacillus subtilis LRP 25 = test: as above; assay type: cell-based; settings: for MIC: Bacillus subtilis
# [20] = test system: Clostridium perfrigens ATCC 3624; test: Bacteriostatic power in solid medium (MIC), anaerobic; assay type: cell-based; settings: for MIC: Clostridium, ATCC3624, LRP 206, read-out: minimum inhibiting concentration
# [21] = test system: Acholeplasma laidlawii ATCC 23206; test: Bacteriostatic power in solid medium (MIC), aerobic Gram negative; assay type: cell-based; settings: for MIC: Acholeplasma laidlawii
# [22] = test system: Streptococcus faecalis LRP 7; test: Bacteriostatic power in solid medium (MIC), aerobic Gram positive; assay type: cell-based; settings: for MIC: Enterococcus faecalis
# [23] = test system: Mycoplasma hominis I ATCC 14097; test: Bacteriostatic power in solid medium (MIC), aerobic Gram negative; assay type: cell-based; settings: for MIC: Metamycoplasma hominis, ATCC14097, read-out: minimum inhibiting concentration
# [24] = known; cited from earlier work
# physchem = assay type: physicochemical; settings: for half-life: acidic environment, read-out: t 1/2
# Text: t 1/2 represents the half life time of the antibiotics as determined by
# high pressure liquid phase chromatography (HPLC).
# [25] = Relative solubility in water phase (extraction, TLC and HPLC control); assay type: physicochemical; settings: relative to P 15148, P 15149 and P 15153; alkaline aqueous phase
# Text: Before each extraction the pH of the aqueous phase is brought again to 9.
compound,measurement,setting,value
"CO[C@H]1C[C@H](O[C@H]2[C@H](C)[C@@H](O[C@@H]3O[C@H](C)C[C@H](N(C)C)[C@H]3O)[C@@H](C)C[C@@]3(CO3)C(=O)[C@H](C)[C@@H](O)[C@@H](C)[C@@H](C)OC(=O)[C@@H]2C)O[C@@H](C)[C@@H]1O [oleandomycin, reference compound]",MIC,"[1]; ATCC19424, solid medium, LRP 214, read-out: minimum inhibiting concentration",0.195 µg/mL
same,MIC,[2],> 25 µg/mL
same,MIC,"[3]; ATCC23745, solid medium, LRP 205, anaerobic, read-out: minimum inhibiting concentration",0.39 µg/mL
same,MIC,[4],> 25 µg/mL
same,MIC,[5],> 25 µg/mL
same,MIC,Shigella sonnei LRP 5,> 25 µg/mL
same,MIC,"[6]; LRP52, solid medium, LRP 52, read-out: minimum inhibiting concentration",0.195 µg/mL
same,MIC,"[7]; LRP14, solid medium, LRP 14, Penycilline resistant, read-out: minimum inhibiting concentration",0.39 µg/mL
same,MIC,Escherichia coli LRP 50,> 25 µg/mL
same,MIC,"[8]; LRP24, solid medium, LRP 24, read-out: minimum inhibiting concentration",0.097 µg/mL
same,MIC,"[9]; LRP197, solid medium, LRP 197, read-out: minimum inhibiting concentration",0.195 µg/mL
same,MIC,"[10]; LRP53, solid medium, LRP 53, read-out: minimum inhibiting concentration",0.195 µg/mL
same,MIC,"[11]; ATCC9341, solid medium, LRP 6, read-out: minimum inhibiting concentration",0.049 µg/mL
same,MIC,[12],> 25 µg/mL
same,MIC,[13],> 25 µg/mL
same,MIC,Salmonella typhi LRP 8,> 25 µg/mL
same,MIC,"[14]; ATCC27852, solid medium, LRP 210, anaerobic, read-out: minimum inhibiting concentration",6.25 µg/mL
same,MIC,[15],> 25 µg/mL
same,MIC,"[16]; ATCC6538, solid medium, LRP 39, read-out: minimum inhibiting concentration",0.39 µg/mL
same,MIC,"[17]; ATCC12958, solid medium, LRP 61, read-out: minimum inhibiting concentration",1.56 µg/mL
same,MIC,"[18]; ATCC8668, solid medium, LRP 34, read-out: minimum inhibiting concentration",0.195 µg/mL
same,MIC,"[19]; ATCC6303, solid medium, LRP 35, read-out: minimum inhibiting concentration",0.195 µg/mL
same,MIC,"Bacillus subtilis LRP 25; LRP25, solid medium, LRP 25, read-out: minimum inhibiting concentration",0.39 µg/mL
same,MIC,[20],3.12 µg/mL
same,MIC,"[21]; ATCC23206, solid medium, LRP 204, read-out: minimum inhibiting concentration",6.25 µg/mL
same,MIC,"[22]; LRP7, solid medium, LRP 7, read-out: minimum inhibiting concentration",1.56 µg/mL
same,MIC,[23],> 25 µg/mL
same,toxicity,[24],high toxicity
"3-O-oleandrosyl-5-O-desosaminyl-(8S)-8,19-epoxyerythronolide B [P 15153]",minimum inhibiting concentration,"[1]; solid medium, LRP 214",0.195 µg/mL
same,minimum inhibiting concentration,"[2]; solid medium, LRP 54",> 25 µg/mL
same,minimum inhibiting concentration,"[3]; solid medium, LRP 205, anaerobic",6.25 µg/mL
same,minimum inhibiting concentration,[4]; LRP 213,12.5 µg/mL
same,minimum inhibiting concentration,[5],> 25 µg/mL
same,minimum inhibiting concentration,Shigella sonnei LRP 5,> 25 µg/mL
same,minimum inhibiting concentration,"[6]; solid medium, LRP 52",0.049 µg/mL
same,minimum inhibiting concentration,"[7]; solid medium, LRP 14, Penycilline resistant",0.195 µg/mL
same,minimum inhibiting concentration,"Escherichia coli LRP 50; solid medium, LRP 50",25 µg/mL
same,minimum inhibiting concentration,"[8]; solid medium, LRP 24",0.024 µg/mL
same,minimum inhibiting concentration,"[9]; solid medium, LRP 197",0.049 µg/mL
same,t 1/2,"physchem; pH 2.0, 25° C.",65 h
same,minimum inhibiting concentration,"[10]; solid medium, LRP 53",0.024 µg/mL
same,minimum inhibiting concentration,"[11]; solid medium, LRP 6",0.024 µg/mL
same,minimum inhibiting concentration,"[12]; LRP 78, Erythromicina resistant",> 25 µg/mL
same,minimum inhibiting concentration,"[13]; LRP 193, Erythromicina resistant",> 25 µg/mL
same,minimum inhibiting concentration,"Salmonella typhi LRP 8; solid medium, LRP 8",25 µg/mL
same,minimum inhibiting concentration,"[14]; solid medium, LRP 210, anaerobic",25 µg/mL
same,minimum inhibiting concentration,"[15]; solid medium, LRP 13",> 25 µg/mL
same,minimum inhibiting concentration,"[16]; solid medium, LRP 39",0.195 µg/mL
same,minimum inhibiting concentration,"[17]; solid medium, LRP 61",0.39 µg/mL
same,minimum inhibiting concentration,"[18]; solid medium, LRP 34",0.049 µg/mL
same,minimum inhibiting concentration,"[19]; solid medium, LRP 35",0.049 µg/mL
same,minimum inhibiting concentration,"Bacillus subtilis LRP 25; solid medium, LRP 25",0.195 µg/mL
same,minimum inhibiting concentration,[20]; LRP 206,3.12 µg/mL
same,minimum inhibiting concentration,"[21]; solid medium, LRP 204",1.56 µg/mL
same,minimum inhibiting concentration,"[22]; solid medium, LRP 7",0.78 µg/mL
same,minimum inhibiting concentration,"[23]; solid medium, LRP 211",> 25 µg/mL
"CO[C@H]1C[C@H](O[C@H]2[C@H](C)[C@@H](O[C@@H]3O[C@H](C)C[C@H](N(C)C)[C@H]3O)[C@](C)(O)C[C@@H](C)C(=O)[C@H](C)[C@@H](O)[C@@H](C)[C@@H](CCO)OC(=O)[C@@H]2C)O[C@@H](C)[C@@H]1O [P 15150, 3-O-oleandrosyl-5-O-desosaminyl-15-hydroxyerythronolide B]",MIC,"[1]; ATCC19424, read-out: minimum inhibiting concentration",0.195 µg/mL
same,MIC,[2],> 25 µg/mL
same,MIC,"[3]; ATCC23745, read-out: minimum inhibiting concentration",> 25 µg/mL
same,MIC,[4],> 25 µg/mL
same,MIC,[5],> 25 µg/mL
same,MIC,Shigella sonnei LRP 5,> 25 µg/mL
same,MIC,"[6]; LRP52, read-out: minimum inhibiting concentration",0.195 µg/mL
same,MIC,"[7]; LRP14, read-out: minimum inhibiting concentration",3.12 µg/mL
same,MIC,Escherichia coli LRP 50,> 25 µg/mL
same,MIC,"[8]; LRP24, read-out: minimum inhibiting concentration",0.097 µg/mL
same,MIC,"[9]; LRP197, read-out: minimum inhibiting concentration",0.097 µg/mL
same,half-life,physchem; pH 2,> 100 h
same,half-life,physchem; pH 3,> 100 h
same,half-life,physchem; pH 4,> 100 h
same,MIC,"[10]; LRP53, read-out: minimum inhibiting concentration",0.39 µg/mL
same,MIC,"[11]; ATCC9341, read-out: minimum inhibiting concentration",0.195 µg/mL
same,MIC,[12],> 25 µg/mL
same,MIC,[13],> 25 µg/mL
same,MIC,Salmonella typhi LRP 8,25 µg/mL
same,MIC,"[14]; ATCC27852, read-out: minimum inhibiting concentration",> 25 µg/mL
same,MIC,[15],> 25 µg/mL
same,MIC,"[16]; ATCC6538, read-out: minimum inhibiting concentration",3.12 µg/mL
same,MIC,"[17]; ATCC12958, read-out: minimum inhibiting concentration",3.12 µg/mL
same,MIC,"[18]; ATCC8668, read-out: minimum inhibiting concentration",0.097 µg/mL
same,solubility in water phase,[25],more soluble than the others in water phase
same,MIC,"[19]; ATCC6303, read-out: minimum inhibiting concentration",0.195 µg/mL
same,MIC,"Bacillus subtilis LRP 25; LRP25, read-out: minimum inhibiting concentration",3.12 µg/mL
same,MIC,[20],6.25 µg/mL
same,MIC,"[21]; ATCC23206, read-out: minimum inhibiting concentration",6.25 µg/mL
same,MIC,"[22]; LRP7, read-out: minimum inhibiting concentration",6.25 µg/mL
same,MIC,[23],> 25 µg/mL
